According to ChEMBL document CHEMBL4376820, “Homodimeric Tobramycin Adjuvant Repurposes Novobiocin as an Effective Antibacterial Agent against Gram-Negative Bacteria” (J Med Chem, 2019):
Calls of active or inactive are those of the source. The calls are words filed in the database; no cut-off is given here.

Columns and labels:
Escherichia coli [1] = test: Antibacterial activity against carbapenem-resistant Escherichia coli 107115 clinical isolate harboring mcr-1 gene incubated for 18 hrs by CLSI protocol based assay; assay type: functional; conditions: Escherichia coli, 107115, 18 h
Pseudomonas aeruginosa [2] = test: Synergistic antibacterial activity against wild type Pseudomonas aeruginosa PAO1 assessed as potentiation of aztreonam-induced antibacterial effect incubated for 18 hrs by checkerboard assay; assay type: functional, organism-based
Pseudomonas aeruginosa [3] = test: Synergistic antibacterial activity against wild type Pseudomonas aeruginosa PAO1 assessed as potentiation of tobramycin-induced antibacterial effect at <= 7.1 uM incubated for 18 hrs by checkerboard assay; assay type: functional, organism-based
Acinetobacter baumannii [4] = test: Potentiation of novobiocin-induced antibacterial activity against novobiocin and colistin resistant Acinetobacter baumannii ATCC 17978 mutant generated from seven serial passages by checkerboard assay; assay type: functional, organism-based
Acinetobacter baumannii [5] = test: Antibacterial activity against Acinetobacter baumannii 110193 clinical isolate incubated for 18 hrs by CLSI protocol based assay; assay type: functional; conditions: Acinetobacter baumannii, 110193, 18 h
Escherichia coli [6] = test: Potentiation of novobiocin-induced antibacterial activity against carbapenem-resistant Escherichia coli 107115 clinical isolate harboring mcr-1 gene assessed as fold reduction in novobiocin MIC incubated for 18 hrs by CLSI protocol based assay relative to novobiocin MIC; assay type: functional
Klebsiella pneumoniae = test: Potentiation of novobiocin-induced antibacterial activity against colistin-resistant Klebsiella pneumoniae 113254 clinical isolate assessed as novobiocin MIC at <= 7.1 uM incubated for 18 hrs by CLSI protocol based assay (reference value: 256 ug/ml); assay type: functional; conditions: Klebsiella pneumoniae, 113254, 18 h
Acinetobacter baumannii [7] = test: Antibacterial activity against wild type Acinetobacter baumannii ATCC 17978 assessed as resistant development at 7.1 uM in presence of novobiocin by microbroth dilution method relative to control; assay type: functional
Acinetobacter baumannii [8] = test: Potentiation of novobiocin-induced antibacterial activity against Acinetobacter baumannii 027 clinical isolate assessed as novobiocin MIC at <= 7.1 uM incubated for 18 hrs by CLSI protocol based assay (reference value: 8 ug/ml); assay type: functional; conditions: Acinetobacter baumannii, 027, 18 h
Pseudomonas aeruginosa [9] = test: Synergistic antibacterial activity against wild type Pseudomonas aeruginosa PAO1 assessed as potentiation of novobiocin-induced antibacterial effect incubated for 18 hrs by checkerboard assay; assay type: functional, organism-based
Pseudomonas aeruginosa [10] = test: Bactericidal activity against Pseudomonas aeruginosa PAO1 assessed as log reduction in colony forming units per ml at 7.1 uM in LB media after 24 hrs in by time-kill assay; assay type: functional
Escherichia coli [11] = test: Bactericidal activity against Escherichia coli ATCC […] assessed as log reduction in colony forming units per ml at 7.1 uM in LB media after 6 hrs in presence of 50.4 uM novobiocin by time-kill assay; assay type: functional
Pseudomonas aeruginosa [12] = test: Synergistic antibacterial activity against wild type Pseudomonas aeruginosa PAO1 assessed as potentiation of piperacillin-induced antibacterial effect incubated for 18 hrs by checkerboard assay; assay type: functional, organism-based
Pseudomonas aeruginosa [13] = test: Synergistic antibacterial activity against wild type Pseudomonas aeruginosa PAO1 assessed as potentiation of levofloxacin-induced antibacterial effect incubated for 18 hrs by checkerboard assay; assay type: functional, organism-based
Erythrocyte = test: Hemolytic activity against porcine erythrocytes assessed as hemoglobin release at 1024 ug/ml incubated for 1 hr by microplate reader analysis; assay type: ADME, cell-based, Sus scrofa; conditions: pig
Pseudomonas aeruginosa [14] = test: Synergistic antibacterial activity against wild type Pseudomonas aeruginosa PAO1 assessed as potentiation of doxycycline-induced antibacterial effect incubated for 18 hrs by checkerboard assay relative to doxycycline alone; assay type: functional
Pseudomonas aeruginosa [15] = test: Potentiation of novobiocin-induced antibacterial activity against carbapenem and colistin-resistant Pseudomonas aeruginosa 114228 clinical isolate assessed as fold reduction in novobiocin MIC incubated for 18 hrs by CLSI protocol based assay relative to novobiocin MIC; assay type: functional
Pseudomonas aeruginosa [16] = test: Antibacterial activity against mexAB-oprM mutant deficient Pseudomonas aeruginosa PAO200 incubated for 18 hrs by CLSI protocol based assay; assay type: functional; conditions: PAO200, 18 h
Escherichia coli [17] = test: Potentiation of novobiocin-induced antibacterial activity against colistin-resistant Escherichia coli 94393 clinical isolate harboring mcr-1 gene assessed as novobiocin MIC at <= 7.1 uM incubated for 18 hrs by CLSI protocol based assay (reference value: 128 ug/ml); assay type: functional; conditions: Escherichia coli, 94393, 18 h
Acinetobacter baumannii [18] = test: Antibacterial activity against wild type Acinetobacter baumannii ATCC 17978 assessed as resistant development at 7.1 uM measured after 5 days of passaging in presence of novobiocin by microbroth dilution method relative to control; assay type: functional
Pseudomonas aeruginosa [19] = test: Antibacterial activity against carbapenem-resistant Pseudomonas aeruginosa 262-101856 clinical isolate incubated for 18 hrs by CLSI protocol based assay; assay type: functional; conditions: 262-101856, 18 h
Pseudomonas aeruginosa [20] = test: Potentiation of novobiocin-induced antibacterial activity against mexAB-oprM/mexCD-oprJ/mexEF-oprN/mexJK/mexXY/opmH mutant deficient Pseudomonas aeruginosa PAO750 assessed as novobiocin MIC at <= 7.1 uM incubated for 18 hrs by CLSI protocol based assay (reference value: 32 ug/ml); assay type: functional; conditions: PAO750, 18 h
Acinetobacter baumannii [21] = test: Potentiation of novobiocin-induced antibacterial activity against Acinetobacter baumannii 110193 clinical isolate assessed as fold reduction in novobiocin MIC incubated for 18 hrs by CLSI protocol based assay relative to novobiocin MIC; assay type: functional
Pseudomonas aeruginosa [22] = test: Bactericidal activity against Pseudomonas aeruginosa PAO1 assessed as log reduction in colony forming units per ml at 7.1 uM in LB media after 24 hrs in presence of 50.4 uM novobiocin by time-kill assay; assay type: functional
Acinetobacter baumannii [23] = test: Antibacterial activity against novobiocin-resistant Acinetobacter baumannii ATCC 17978 mutant generated from seven serial passages by checkerboard assay; assay type: functional
Pseudomonas aeruginosa [24] = test: Synergistic antibacterial activity against wild type Pseudomonas aeruginosa PAO1 assessed as potentiation of vancomycin-induced antibacterial effect at <=7.1 uM incubated for 18 hrs by checkerboard assay; assay type: functional, organism-based
Acinetobacter baumannii [25] = test: Antibacterial activity against Acinetobacter baumannii 027 clinical incubated for 18 hrs by CLSI protocol based assay; assay type: functional; conditions: Acinetobacter baumannii, 027, 18 h
Acinetobacter baumannii [26] = test: Antibacterial activity against wild type Acinetobacter baumannii ATCC 17978 incubated for 18 hrs by CLSI protocol based assay; assay type: functional; conditions: ATCC 17978, 18 h
Pseudomonas aeruginosa [27] = test: Potentiation of novobiocin-induced antibacterial activity against carbapenem-resistant Pseudomonas aeruginosa 101885 clinical isolate assessed as novobiocin MIC at <= 7.1 uM incubated for 18 hrs by CLSI protocol based assay (reference value: 1024 ug/ml); assay type: functional; conditions: Pseudomonas aeruginosa, 101885, 18 h
Acinetobacter baumannii [28] = test: Potentiation of novobiocin-induced antibacterial activity against Acinetobacter baumannii 110193 clinical isolate assessed as novobiocin MIC at <= 7.1 uM incubated for 18 hrs by CLSI protocol based assay (reference value: 256 ug/ml); assay type: functional; conditions: Acinetobacter baumannii, 110193, 18 h
Escherichia coli [29] = test: Potentiation of novobiocin-induced antibacterial activity against wild type Escherichia coli ATCC 25922 assessed as novobiocin MIC at <= 7.1 uM incubated for 18 hrs by CLSI protocol based assay (reference value: 64 ug/ml); assay type: functional; conditions: ATCC 25922, 18 h
Acinetobacter baumannii [30] = test: Potentiation of novobiocin-induced antibacterial activity against Acinetobacter baumannii 031 clinical isolate assessed as fold reduction in novobiocin MIC incubated for 18 hrs by CLSI protocol based assay relative to novobiocin MIC; assay type: functional
Pseudomonas aeruginosa [31] = test: Synergistic antibacterial activity against wild type Pseudomonas aeruginosa PAO1 assessed as potentiation of meropenem-induced antibacterial effect incubated for 18 hrs by checkerboard assay relative to meropenem alone; assay type: functional

## NC[C@H]1O[C@H](O[C@H]2[C@H](OCCCCc3cn(CCCCO[C@@H]4[C@@H](O[C@H]5O[C@H](CO)[C@@H](O)[C@H](N)[C@H]5O)[C@H](N)C[C@H](N)[C@H]4O[C@H]4O[C@H](CN)[C@@H](O)C[C@H]4N)nn3)[C@@H](O[C@H]3O[C@H](CO)[C@@H](O)[C@H](N)[C@H]3O)[C@H](N)C[C@@H]2N)[C@H](N)C[C@@H]1O.O=C(O)C(F)(F)F.O=C(O)C(F)(F)F.O=C(O)C(F)(F)F.O=C(O)C(F)(F)F.O=C(O)C(F)(F)F.O=C(O)C(F)(F)F.O=C(O)C(F)(F)F.O=C(O)C(F)(F)F.O=C(O)C(F)(F)F.O=C(O)C(F)(F)F
Escherichia coli [1]
  MIC: > 128 µg/mL
Pseudomonas aeruginosa [2]
  Activity: Dose-dependent effect
Pseudomonas aeruginosa [3]
  Activity: inactive
Acinetobacter baumannii [4]
  Activity: inactive
Acinetobacter baumannii [5]
  MIC: > 128 µg/mL
Escherichia coli [6]
  Ratio: 16
Klebsiella pneumoniae
  MIC: 16 µg/mL
Acinetobacter baumannii [7]
  fold change (FC): 2
Acinetobacter baumannii [8]
  MIC: 0.5 µg/mL
Pseudomonas aeruginosa [9]
  Activity: Dose-dependent effect
Pseudomonas aeruginosa [10]
  Activity: -3.68 CFU/ml
Escherichia coli [11]
  Activity: -5 CFU/ml
Pseudomonas aeruginosa [12]
  Activity: Dose-dependent effect
Pseudomonas aeruginosa [13]
  Activity: Dose-dependent effect
Erythrocyte
  Activity: Non-Toxic
Pseudomonas aeruginosa [14]
  fold change (FC): 4 - 128
Pseudomonas aeruginosa [15]
  Ratio: 32
Pseudomonas aeruginosa [16]
  MIC: > 128 µg/mL
Escherichia coli [17]
  MIC: 2 µg/mL
Acinetobacter baumannii [18]
  fold change (FC): 16
Pseudomonas aeruginosa [19]
  MIC: > 128 µg/mL
Pseudomonas aeruginosa [20]
  MIC: 0.125 µg/mL
Acinetobacter baumannii [21]
  Ratio: 256
Pseudomonas aeruginosa [22]
  Activity: -9.48 CFU/ml
Acinetobacter baumannii [23]
  MIC: 128 µg/mL
Pseudomonas aeruginosa [24]
  Activity: inactive
Acinetobacter baumannii [25]
  MIC: > 128 µg/mL
Acinetobacter baumannii [26]
  MIC: > 128 µg/mL
Pseudomonas aeruginosa [27]
  MIC: 8 µg/mL
Acinetobacter baumannii [28]
  MIC: 1 µg/mL
Escherichia coli [29]
  MIC: 2 µg/mL
Acinetobacter baumannii [30]
  Ratio: 16
Pseudomonas aeruginosa [31]
  fold change (FC): 4 - 128
